Results from US8541449B2, “Substituted isoquinolines and isoquinolinones as Rho kinase inhibitors” (Sanofi, priority 2008, dated 2013).

Tests used:
Type in all cases: biochemical
recombinant human PKA = molecular target: T1, recombinant human PKA (Homo sapiens, UniProt P17612); assay: Determination of Protein Kinase A inhibition (Caliper peptide phosphorylation assay); settings: recombinant human PKA versus ROCK II
T1 construct: Active recombinant human PKA (residues 1-351, N-terminal His-tag); His-tag (N); purchased Invitrogen, Karlsruhe, Germany
Experimental: (§1) Determination of Protein Kinase A and Protein Kinase G Inhibition
(§2) To measure PKA and PKG1-beta inhibition, IC50 values were determined according to the following protocol:
(§3) Active recombinant human PKG1-beta (full-length, with N-terminal His-tag) was purchased from Millipore GmbH, Schwalbach, Germany. Active recombinant human PKA (residues 1-351, N-terminal His-tag) was obtained from Invitrogen, Karlsruhe, Germany. The peptide substrate, Fluorescein-[…]-COOH, was obtained from JPT Peptide Technologies, Berlin, Germany. Adenosine-5′-triphosphate (ATP), bovine serum albumine (BSA), dimethylsulphoxide (DMSO), 4-(2-Hydroxyethyl)piperazine-1-ethanesulfonic acid (Hepes), Brij-35, dithiothreitol (DTT) and Pluronic F-68 were purchased from Sigma-Aldrich, Munich, Germany. Tris(hydroxymethyl)-aminomethane (Tris), magnesium chloride, NaOH, 1M HCl and EDTA were obtained from Merck Biosciences, Darmstadt, Germany. “Complete” protease inhibitor was from Roche Diagnostics, Mannheim, Germany.
(§4) Test compounds were diluted to the appropriate concentrations in buffer 1 (25 mM Tris-HCl, pH 7.4, 5 mM MgCl2, 2 mM DTT, 0.02% (w/v) BSA, 0.01% Pluronic F-68 and 3% DMSO). PKG1-beta and PKA were diluted to concentrations of 150 ng/ml and 30 ng/ml, respectively, in buffer 2. The peptide substrate and ATP were diluted to concentrations of 3 μM and 120 μM, respectively, in the buffer 2. Two μl of the compound solution were mixed with 2 μl of the diluted enzyme in a 384-well small volume microtiter plate (Greiner, Bio-One, Frickenhausen, Germany), and the kinase reaction was initiated by addition of 2 μl of the solution containing peptide substrate and ATP. After 60 min incubation at 32° C., the reaction was stopped by addition of 20 μl of a solution containing 100 mM Hepes-NaOH, pH 7.4, 0.015% (v/v) Brij-35, 45 mM EDTA and 0.227% chip coating reagent 1 (Caliper Lifescience Inc, Hopkinton, Mass.). Phosphorylation of the substrate peptide was then detected on a Caliper 3000 instrument essentially as described by Pommereau et al (J. Biomol. Screening 9(5), 409-416, 2004). Separation conditions were as follows: Pressure −1.3 psi, upstream voltage −1562 V, downstream voltage −500 V, sample sip time 200 ms. Positive controls (buffer 1 instead of compound) and negative controls (buffer 1 instead of compound and buffer 2 instead of kinase solution) were run in parallel on each plate. The following products/compounds were tested in said assay by using the respective form (salt or free base) obtained as in the examples described above and the following activities were measured.

[1] = molecular target: T2, recombinant human PKG1-beta (Homo sapiens, UniProt Q13976); assay: Determination of Protein Kinase G inhibition (Caliper peptide phosphorylation assay); settings: recombinant human PKG1-beta versus ROCK II
T2 construct: Active recombinant human PKG1-beta (full-length, with N-terminal His-tag); His-tag (N); purchased Millipore GmbH, Schwalbach, Germany
T2 sequence (Q13976 1-686 isoform Q13976-2): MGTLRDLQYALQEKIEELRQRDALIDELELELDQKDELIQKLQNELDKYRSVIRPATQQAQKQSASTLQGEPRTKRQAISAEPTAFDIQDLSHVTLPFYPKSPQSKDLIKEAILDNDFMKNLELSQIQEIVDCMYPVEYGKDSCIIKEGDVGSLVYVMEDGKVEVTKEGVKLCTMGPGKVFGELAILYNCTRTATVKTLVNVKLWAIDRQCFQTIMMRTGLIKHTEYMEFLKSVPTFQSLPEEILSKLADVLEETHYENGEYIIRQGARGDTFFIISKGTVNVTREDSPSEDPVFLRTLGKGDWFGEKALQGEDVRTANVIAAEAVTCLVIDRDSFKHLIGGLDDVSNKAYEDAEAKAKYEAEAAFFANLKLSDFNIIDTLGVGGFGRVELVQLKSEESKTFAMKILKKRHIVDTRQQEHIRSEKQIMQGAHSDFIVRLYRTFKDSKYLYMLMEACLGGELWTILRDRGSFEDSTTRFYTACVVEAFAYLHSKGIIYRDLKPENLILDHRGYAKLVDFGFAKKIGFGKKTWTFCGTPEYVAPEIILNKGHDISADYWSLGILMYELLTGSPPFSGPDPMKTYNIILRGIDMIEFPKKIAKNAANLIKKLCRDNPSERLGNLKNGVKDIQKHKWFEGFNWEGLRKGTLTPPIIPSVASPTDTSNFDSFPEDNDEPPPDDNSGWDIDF
Experimental: as §1, §2, §3, §4

[2] = molecular target: T3, human recombinant ROCK II (Homo sapiens, UniProt O75116); assay: Determination of Rho kinase inhibition (Caliper peptide phosphorylation assay); settings: 60 min at 32° C., negative decadal logarithm of the IC50
T3 construct: N-terminal His6-tagged recombinant human ROCK-II residues 11-552; His6 (N); purchased Millipore GmbH, Schwalbach, Germany
Experimental: Determination of Rho Kinase Inhibition
To measure Rho-kinase inhibition, IC50 values were determined according to the following protocol:
Active human recombinant ROCK II (N-terminal His6-tagged recombinant human ROCK-II residues 11-552) was purchased from Millipore GmbH, Schwalbach, Germany. The peptide substrate, Fluorescein-[…]-COOH, was obtained from JPT Peptide Technologies, Berlin, Germany. Adenosine-5′-triphosphate (ATP), bovine serum albumine (BSA), dimethylsulphoxide (DMSO), 4-(2-Hydroxyethyl)piperazine-1-ethanesulfonic acid (Hepes), Brij-35, dithiothreitol (DTT) and Pluronic F-68 were purchased from Sigma-Aldrich, Munich, Germany. Tris(hydroxymethyl)-aminomethane (Tris), magnesium chloride, NaOH, 1M HCl and EDTA were obtained from Merck Biosciences, Darmstadt, Germany. “Complete” protease inhibitor was from Roche Diagnostics, Mannheim, Germany.
Test compounds were diluted to the appropriate concentrations in buffer 1 (25 mM Tris-HCl, pH 7.4, 5 mM MgCl2, 2 mM DTT, 0.02% (w/v) BSA, 0.01% Pluronic F-68 and 3% DMSO). The ROCK II enzyme was diluted to a concentration of 100 ng/mL in buffer 2 (25 mM Tris-HCl, pH 7.4, 5 mM MgCl2, 2 mM DTT and 0.02% (w/v) BSA). The peptide substrate and ATP were diluted to concentrations of 3 μM and 120 μM, respectively, in the buffer 2. Two μl of the compound solution were mixed with 2 μl of the diluted enzyme in a 384-well small volume microtiter plate (Greiner, Bio-One, Frickenhausen, Germany), and the kinase reaction was initiated by addition of 2 μl of the solution containing peptide substrate and ATP. After 60 min incubation at 32° C., the reaction was stopped by addition of 20 μl of a solution containing 100 mM Hepes-NaOH, pH 7.4, 0.015% (v/v) Brij-35, 45 mM EDTA and 0.227% chip coating reagent 1 (Caliper Lifescience Inc, Hopkinton, Mass.). Phosphorylation of the substrate peptide was then detected on a Caliper 3000 instrument essentially as described by Pommereau et al (J. Biomol. Screening 9(5), 409-416, 2004). Separation conditions were as follows: Pressure −1.3 psi, upstream voltage −1562 V, downstream voltage −500 V, sample sip time 200 ms. Positive controls (buffer 1 instead of compound) and negative controls (buffer 1 instead of compound and buffer 2 instead of ROCK II) were run in parallel on each plate.
The following products/compounds were tested in said assay by using the respective form (salt or free base) obtained as in the examples described above and the following activities were measured

T3 sequence (O75116 11-552): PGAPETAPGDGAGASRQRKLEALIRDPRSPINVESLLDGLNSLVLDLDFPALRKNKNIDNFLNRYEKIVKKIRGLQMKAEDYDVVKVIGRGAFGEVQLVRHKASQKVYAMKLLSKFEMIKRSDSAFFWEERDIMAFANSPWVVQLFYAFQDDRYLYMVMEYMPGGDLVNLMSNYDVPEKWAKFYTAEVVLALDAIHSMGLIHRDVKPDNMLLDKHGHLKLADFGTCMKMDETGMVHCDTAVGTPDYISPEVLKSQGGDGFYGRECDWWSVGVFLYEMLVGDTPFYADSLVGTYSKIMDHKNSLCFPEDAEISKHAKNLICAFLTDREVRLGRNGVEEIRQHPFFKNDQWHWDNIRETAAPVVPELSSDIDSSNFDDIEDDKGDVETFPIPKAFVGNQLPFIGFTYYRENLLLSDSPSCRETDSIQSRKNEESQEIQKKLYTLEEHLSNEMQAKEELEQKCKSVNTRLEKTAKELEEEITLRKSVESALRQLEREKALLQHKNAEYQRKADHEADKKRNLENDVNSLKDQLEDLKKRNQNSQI

IC50 [2] [nM] | SMILES | Selectivity against PKA (recombinant human PKA) | Selectivity against PKG [1] | pIC50 [2]
 | CCCC(N)[C@]1(c2ccccc2)CC[C@H](Oc2cc3cc[nH]c(=O)c3cc2Cl)CC1 (stereo partly drawn) [Example 4, cis-6-[4-(1-Amino-butyl)-4-phenyl-cyclohexyloxy]-7-chloro-2H-isoquinolin-1-one] | >1000 | >100 | +++++++ (8.0≦pIC50)
 | NC1([C@]2(c3ccccc3)CC[C@H](Oc3cc4cc[nH]c(=O)c4cc3Cl)CC2)CC1 [Example 2, cis-6-[4-(1-Amino-cyclopropyl)-4-phenyl-cyclohexyloxy]-7-chloro-2H-isoquinolin-1-one] | >1000 | >1000 | +++++++ (8.0≦pIC50)
 | CCC(N)C1(c2ccc(F)cc2)CC(Oc2cc3cc[nH]c(=O)c3cc2Cl)C1 (stereo not drawn) [Example 125, 6-[3-(1-Amino-propyl)-3-(4-fluoro-phenyl)-cyclobutyloxy]-7-chloro-2H-isoquinolin-1-one] | >10 | >10 | +++++ (6.0≦pIC50<7.0)
10 to 100 | Cc1ccc(C(N)C2CCC(Oc3cc4cc[nH]c(=O)c4cc3Cl)CC2)cc1 (single isomer, unassigned) [Example 39, 6-[4-(Amino-p-tolyl-methyl)-cyclohexyloxy]-7-chloro-2H-isoquinolin-1-one] | >100 | >100 | 
 | CCC(N)[C@]1(c2ccc(F)cc2F)CC[C@H](Oc2cc3cc[nH]c(=O)c3cc2Cl)CC1 (stereo partly drawn) [Example 56, cis-6-[4-(1-Amino-propyl)-4-(2,4-difluoro-phenyl)-cyclohexyloxy]-7-chloro-2H-isoquinolin-1-one] | >1000 | >300 | +++++++ (8.0≦pIC50)
 | CCC(N)[C@]1(c2ccc(F)cc2C)CC[C@H](Oc2cc3cc[nH]c(=O)c3cc2Cl)CC1 (stereo partly drawn) [Example 57, cis-6-[4-(1-Amino-propyl)-4-(4-fluoro-2-methyl-phenyl)cyclohexyloxy]-7-chloro-2H-isoquinolin-1-one] | >1000 | >300 | +++++++ (8.0≦pIC50)
 | CC(N)[C@]1(c2ccc(F)cc2)CC[C@H](Oc2cc3cc[nH]c(=O)c3cc2Cl)CC1 (stereo partly drawn) [Example 15, cis-6-[4-(1-Amino-ethyl)-4-(4-fluoro-phenyl)-cyclo-hexyloxy]-7-chloro-2H-iso quinolin-1-one] | >1000 | >300 | +++++++ (8.0≦pIC50)
 | CC(C)(N)[C@]1(c2ccc(F)cc2)CC[C@H](Oc2cc3cc[nH]c(=O)c3cc2Cl)CC1 [Example 77, cis-6-[4-(1-Amino-1-methyl-ethyl)-4-(4-fluoro-phenyl)-cyclohexyloxy]-7-chloro-2H-isoquinolin-1-one] | >1000 | >300 | +++++++ (8.0≦pIC50)
 | CCC(N)[C@]1(c2ccc(F)c(OC)c2)CC[C@H](Oc2cc3cc[nH]c(=O)c3cc2Cl)CC1 (stereo partly drawn) [Example 62, cis-6-[4-(1-Amino-propyl)-4-(4-fluoro-3-methoxy-phenyl)-cyclohexyloxy]-7-chloro-2H-iso quinolin-1-one] | >1000 | >300 | +++++++ (8.0≦pIC50)
 | CCC(N)[C@]1(c2ccc(F)cc2)CC[C@@H](Oc2cc3cc[nH]c(=O)c3cc2Cl)CC1 (stereo partly drawn) [Example 31, trans-6-[4-(1-amino-propyl)-4-(4-fluoro-phenyl)-cyclohexyloxy]-7-chloro-2H-iso quinolin-1-one] | >300 | >100 | ++++++ (7.0≦pIC50<8.0)
 | CCC(N)[C@]1(c2ccccc2)CC[C@H](Oc2c(F)cc3c(=O)[nH]ccc3c2C)CC1 (stereo partly drawn) [Example 88, cis-6-[4-(1-Amino-propyl)-4-phenyl-cyclohexyloxy]-7-fluoro-5-methyl-2H-isoquinolin-1-one] | >10 | >10 | +++++ (6.0≦pIC50<7.0)
 | CCCC(N)[C@]1(c2ccc(F)cc2)CC[C@@H](Oc2cc3cc[nH]c(=O)c3cc2Cl)CC1 (stereo partly drawn) [Example 12, trans-6-[4-(1-Amino-butyl)-4-(4-fluoro-phenyl)-cyclohexyloxy]-7-chloro-2H-isoquinolin-1-one] | >100 | >10 | +++++ (6.0≦pIC50<7.0)
 | CCC(N)[C@]1(c2ccccn2)CC[C@H](Oc2cc3cc[nH]c(=O)c3cc2Cl)CC1 (stereo partly drawn) [Example 55, cis-6-[4-(1-Amino-propyl)-4-pyridin-2-yl-cyclohexyloxy]-7-chloro-2H-isoquinolin-1-one] | >1000 | >300 | +++++++ (8.0≦pIC50)
 | CC(N)[C@]1(c2ccc(F)cc2)CC[C@@H](Oc2cc3cc[nH]c(=O)c3cc2Cl)CC1 (stereo partly drawn) [Example 13, trans-6-[4-(1-Amino-ethyl)-4-(4-fluoro-phenyl)-cyclohexyloxy]-7-chloro-2H-isoquinolin-1-one] | >300 | >100 | ++++++ (7.0≦pIC50<8.0)
